Laboratory results: US20260240826A1, “COMPOSITIONS FOR PD-L1 INHIBITION AND METHODS OF USE THEREOF” (ARIZONA BOARD OF REGENTS ON BEHALF OF THE UNIVERSITY OF …, priority 2023, published 2026)
Entries after “also recorded” stand apart in the source; their conditions may differ.

How the values were obtained:
PD-L1 [1] = test: SSL-induced PD-L1 expression in HaCaT keratinocytes (mRNA, immunoblot); type: cell-based, human; conditions: 24 hr after SSL
Experimental: Human HaCaT immortalized keratinocytes were maintained in DMEM with 10% FBS and 1× penicillin/streptomycin. Cells were authenticated using STR profiling and tested for mycoplasma regularly. Cells were seeded onto […] at a density of ~200 k/dish and grown for 3 days. Prior to treatment, cells were serum starved overnight to enhance the UV responsiveness of signaling. Cells were ~80% confluent at the time of treatment. BMS-202 (10 μM) in DMSO was added to the media 1 hr prior to SSL (pretreatment).
For SSL treatment, UVA-340 bulbs (Q-Lab Corporation) were used. Before exposure, cells were washed with 1×PBS and then incubated in 4 mL PBS (with 0.01% MgCl2 and 0.01% CaCl2) during irradiation. Cells were exposed to 40 kJ/m2 UVA/2.68 kJ/m2 UVB, then rinsed once more with PBS prior to being placed back into DMEM with 1% FBS+penicillin/streptomycin and vehicle or BMS-202 (post-treatment) and incubated until harvest 24 hr later. Control cells underwent identical processing, except were held in the biosafety cabinet without UV exposure.
Cells were lysed in RIPA containing 1×HALT protease+phosphatase inhibitor cocktail (ThermoFisher Scientific) and 100 mM PMSF and protein concentrations were assessed using BCA assay (Bio-Rad). Mouse epidermal protein lysates for immunoblot analysis were derived from scraped frozen SKH-1 skins as described previously (Blohm-Mangone et al., 2018). […]

PD-L1 [2] = test: PD-L1 immunohistochemistry of SKH-1 mouse skin; type: in vivo; conditions: topical 8 mM pre/post; 24 hr post SSL
Experimental: (§1) UVB exposure was performed on AP-1 luciferase reporter mice on the SKH-1 genetic background at a dose of 2.75 kJ/m2 using FS40 bulbs (Q-Lab Corporation) as described before with the modification that mice were imaged 24 hr post UVB exposure using whole body bioluminescence instead of 48 hr post UVB using ear punches. SSL irradiation of SKH-1 mice (Charles River Laboratories, strain code 477) at a dose of 90 kJ/m2 UVA/6 kJ/m2 UVB was performed using UVA-340 bulbs (Q-Lab Corporation) as described before.
PD-L1: IHC staining for PD-L1 in mouse skins was performed using the NBP1-43262 antibody (Novus). Epidermal PD-L1 expression is shown as percent staining determined by ImageJ (NIH, open source) quantification using color deconvolution of the brown stain with a uniform threshold between all samples. Each skin sample (n=3, 20× field) was used to measure at least 3 fields per specimen with the exclusion of hair follicles, if present.
Mouse IHC data were analyzed using Kruskal-Wallis non-parametric data analysis (GraphPad Prism 10.0 software). IHC images shown are magnified according to the 100 μm scale bar contained in the respective panel as specified throughout the figure legends.

[3] = test system: AP-1 luciferase reporter HaCaT cells; test: AP-1 reporter luciferase assay in HaCaT keratinocytes; type: cell-based, human; conditions: harvest 12 hr after UVB
Experimental: HaCaT cells stably transfected with the TRE-driven luciferase plasmid (“AP-1 luciferase” cells) were seeded in 6-well plates, grown to 70% confluence and serum starved overnight to reduce background signaling. Cells were pretreated with BMS-202 or vehicle (DMSO) for 1 hr, then washed twice with PBS prior to exposure to […]. Cells were then washed once more with PBS before being placed into fresh starvation media with vehicle or BMS-202 until harvest 12 hr later. Cells were lysed in Promega's Cell Culture Lysis Buffer (1×), and a total of 10 μg protein per sample replicate was assayed for luciferase activity according to the manufacturer's instructions for the Luciferase Assay System (Promega) using a TD 20/20 luminometer (Turner Designs). Experimental triplicates were averaged and the means from each independent experiment were analyzed by Student's t-test for statistical significance. Results are representative of three independent experiments.

[4] = screening based on physicochemical properties (Log P, UVA/UVB absorbance); conditions: data not shown
cleaved caspase-3 = cleaved caspase-3 immunohistochemistry of SKH-1 mouse skin; type: in vivo; conditions: BMS-202+SSL, 24 hr; vehicle+SSL over 60%
Experimental: as §1
Caspase-3: Briefly, deparaffinized mouse skin slides were subjected to antigen retrieval using a Decloaking chamber in Rodent Decloaker HIER solution (both from Biocare, 115° C. 30 seconds, then 90° C. 10 seconds) followed by blocking with first 3% hydrogen peroxide (10 minutes) and then 5% normal goat serum in PBST (1 hour). Slides were then incubated in a 1:300 dilution of anti-cleaved caspase-3 antibody (#9661, Cell Signal Technology) at 4° C. overnight. […] For quantification, the average count (caspase 3-positive per total epidermal cells) in four fields/slide (20× field) was determined for each mouse skin specimen and calculated per group (n=3).
Mouse IHC data were analyzed using Kruskal-Wallis non-parametric data analysis (GraphPad Prism 10.0 software). […]

PD-L1 [5] = test: SSL-induced PD-L1 protein in SKH-1 mouse epidermis, immunoblot; type: in vivo; conditions: topical 8 mM; 24 hr post SSL
Experimental: as §1
Cells were lysed in RIPA containing 1×HALT protease+phosphatase inhibitor cocktail (ThermoFisher Scientific) and 100 mM PMSF and protein concentrations were assessed using BCA assay (Bio-Rad). Mouse epidermal protein lysates for immunoblot analysis were derived from scraped frozen SKH-1 skins as described previously (Blohm-Mangone et al., 2018). Twenty μg of protein/lane were loaded onto 10% gels for electrophoresis/immunoblotting using established protocols. Human cell lysate blots were probed with Cell Signaling PD-L1 antibody #13684, and mouse epidermal lysate blots were probed with Invitrogen PD-L1 antibody #PA5-20343. Beta-actin (Cell Signaling #4970) was used as a loading control. An anti-rabbit secondary antibody (Cell Signaling #7074) was used for all blots using standard chemiluminescent protocols (Thermo Scientific Pico ECL #34577). […]

**Q.** What does the source list for `COc1nc(OCc2cccc(-c3ccccc3)c2C)ccc1CNCCNC(C)=O` [BMS-202]?
**A.** SSL-induced PD-L1 mRNA expression (PD-L1 [1]): blocked; also recorded: suppressed dose-dependently; SSL-induced PD-L1 protein expression (immunoblot) (PD-L1 [1]): blocked; epidermal PD-L1 staining (IHC) (PD-L1 [2]): pronounced inhibition; UVB-induced AP-1 luciferase signal intensity [3]: significant inhibition; UVA/UVB absorbance [4]: absence of UVA/UVB absorbance; percentage of epidermal cells staining positive for cleaved caspase-3 (cleaved caspase-3): approximately 10%; UV-induced PD-L1 upregulation at the protein level (immunoblot) (PD-L1 [5]): significantly antagonized; antagonistic effect on PD-L1 protein, pre- and post-UV application versus pre only (PD-L1 [5]): more pronounced
